Usually Ki stands for the dissociation constant of the complex between target and ligand, obtained from inhibition or displacement. The term IC50 denotes the concentration that gives 50% inhibition.

We go through one molecule from paper PMC3094704, “S-Petasin, the Main Sesquiterpene of Petasites formosanus, Inhibits Phosphodiesterase Activity and Suppresses Ovalbumin-Induced Airway Hyperresponsiveness” (Evidence-based Complementary and Alternative Medicine : eCAM, 2011).

One data set addresses PDE3. The data set is described as follows: Inhibition of PDE3 activity and Lineweaver-Burk analysis. The format is biochemical, guinea pig. The protocol: Activities of PDE1–5, partially separated from guinea pig lungs and hearts according to the method described by Ko et al., were measured with a two-step procedure according to the method of Thompson and Appleman, using cAMP with [^3H]-cAMP or cGMP with [^3H]-cGMP as substrates. The enzyme pμreparation (25 μL) was incubated for 30 min at 37°C in a total assay volume of […] containing 50 mM Tris-HCl (pH 7.4), 3 mM MgCl2, 1 mM dithiothreitol, 0.05% BSA, 1 μM cAMP with 0.2 μCi [^3H]-cAMP as a substrate alone or in the presence of 0.1 units calmodulin with 10 μM CaCl2 or 5 μM cGMP, and 1 μM cGMP with 0.2 μCi [^3H]-cGMP as another substrate alone or in the presence of 0.1 units calmodulin with 10 μM CaCl2. […] The reagents and homogenate were mixed on ice, and the reaction was initiated by transferring the mixture to a water bath at 37°C. Following a 30-min incubation, the reaction was stopped by transferring the reaction vessel to a bath of boiling water for 3 min. After cooling on ice, 20 μL of a 1 mg/mL solution of C. atrox snake venom was added to the reaction mixture, and the mixture was incubated at 37°C for 10 min. Unreacted [^3H]-cAMP or [^3H]-cGMP was removed by the addition of 500 μL of a 1-in-1 Tris-HCl (40 mM) buffer suspension of Dowex resin (1 × 8-200) with incubation on ice for 30 min. Each tube was then centrifuged for 2 min at 3700 g, and 150 μL of the supernatant was removed for liquid scintillation counting. […] The total protein in each fraction used was assayed according to the method described by Bradford. The PDE activities are shown as nmol/mg/min in the Lineweaver-Burk analysis.

In a further data set the test system is female BALB/c mice. Nature of the data set: Xylazine/ketamine-induced anesthesia. The format is in vivo, mouse. As to conditions: 10–100 μmol/kg s.c., 1 h before anesthesia. Here is the method:
According to the method described by Robichaud et al. and modified by us, S-petasin (10–100 μmol/kg, s.c.) or rolipram (0.01–1 μmol/kg, s.c.), a reference drug, was injected into 8–12 week-old female BALB/c mice 1 h or 15 min, respectively, prior to an i.p. injection of xylazine (10 mg/kg)/ketamine (70 mg/kg). The vehicle (control) for S-petasin or for rolipram was a mixture of alcohol : DMSO : 30% HPβCD : saline (0.5 : 0.5 : 1 : 8 , v/v), or alcohol : DMSO : PEG 400 : saline (0.5 : 0.5 : 1 : 8, v/v), respectively. After loss of the righting reflex (i.e., when a mouse remained on its back and no longer spontaneously righted itself to a prone position), the duration of anesthesia was measured until its return as an endpoint.

For data set [1], the system named is isolated sensitized guinea pig trachea. The data set is described as follows: OVA-induced tracheal contractions and baseline tension in vitro. The protocol: Male Hartley guinea pigs (500–600 g) were sensitized by intramuscular injections of 0.7 mL of 5% (w/v) OVA in saline on Days 1, 4 and 43, and in adjuvant on Days 25 and 39 into each thigh, according to a method described by Underwood et al. and modified by us. Three days after the last injection, sensitized guinea pigs were sacrificed by cervical dislocation, and their tracheas removed. Each trachea was cut into six segments. Each segment consisted of three cartilage rings. All segments were cut open opposite the trachealis. […] Tissues were suspended in normal Krebs solution under an initial tension of 1.5 g and allowed to equilibrate for at least 1 h with washing at 15-min intervals. After the tissues were precontracted with KCl (60 mM) and washed with normal Krebs solution, OVA (0.1–100 μg/mL) was cumulatively added, and contractions were allowed to reach a steady state at each concentration. […] Therefore, the log concentration-response curves of OVA were constructed in the absence and presence of S-petasin. The tension of the precontraction induced by KCl was set as 100%.

The next data set relates to guinea pig trachea. As to conditions: precontracted by histamine, carbachol (CCh), KCl or leukotriene (LT) D4; read-out: IC50 in relaxing guinea pig trachea; cited from earlier work.
Data set [2] relates to cAMP-phosphodiesterase (PDE). Further details: method as in PMID 11345692. As to conditions: cited from earlier work.

`C=C(C)[C@@H]1C[C@@]2(C)C(=CC1=O)CC[C@@H](OC(=O)/C=C\SC)[C@@H]2C` [S-Petasin]: the Ki on PDE3 (Lineweaver-Burk analysis, cAMP substrate, read-out: Ki on PDE isozyme 3) was 25.3 ± 2 µM. For the same molecule, the “Mode of inhibition of PDE3 activity” value in the data set on PDE3 (Lineweaver-Burk analysis, S-petasin 3–30 μM, milrinone 0.3–3 μM) is reported as “competitively inhibited”. The 50% inhibitory concentration (IC50) in the data set with PDE3 (mean ± SEM (n), read-out: IC50 on PDE isozyme 3) was 25.5 ± 1.5 µM; with guinea pig trachea, below 10 µM. For the same molecule, in the data set on female BALB/c mice, the “Duration of xylazine/ketamine-induced anesthesia” value is given as “did not affect”. Further, the “OVA (100 μg/mL)-induced contractions” value in data set [1] (30–100 μM, 15 min preincubation) is “did not significantly inhibit”. For the same molecule, in data set [1] (30–300 μM), the Baseline tension entry is “concentration-dependently and significantly relaxed”. The “Inhibition of cAMP-phosphodiesterase (PDE) activity” value in data set [2] is listed as “inhibited”.
